Test results from patent US7351701B2, “Therapeutic compounds” (Cancer Research Technology Limited, priority 2004, dated 2008).
Read-outs that look alike come from different tables or passages of the source.

Key:
PARP [1] = molecular target: T1, PARP (Mus musculus, UniProt P11103); experiment: PARP activity assay in digitonin-permeabilised L1210 cells; format: cell-based; design: endogenous in cells; host or cells: L1210 cells, digitonin-permeabilised; conditions: L1210 cells permeabilised prior to adding the inhibitor
Description: (§1) Exponentially growing cells were exposed to 1% DMSO in culture medium (control) or a compound of formula I or III in 1% DMSO at the concentrations indicated in FIG. 4 to cells permeabilised with digitonin, or intact cells for 20 minutes prior to washing and digitonin-permeabilization. PARP activity was measured by incorporation of a [32P] labelled NAD+ substrate into TCA precipitateble polymers after stimulation by the addition of a blunt-ended oligonucleotide and compared with non-oligonucleotide-stimulated cells. PARP activity in tumour homogenates (1 in 40 in isotonic buffer) from formula III-treated mice was measured in the same way. PARP activity in pbls and tumour homogenates from formula I-phospate treated mice was measured by immunological detection of polymer using the 10H antibody. Briefly, tumour homogenates diluted to up to 1:1000 in isotonic buffer were incubated with 350 μM NAD for 6 min and blotted onto nitrocellulose membrane. The poly(ADP-ribose) (PAR) polymer formation was quantified by chemiluminescence detection using a Fuji LAS3000 UV Illuminator by reference to serial dilutions of a PAR standard, following incubation with 10H antibody to PAR and a secondary anti-mouse antibody.

SW620 xenografts = experiment: Tumour growth (median relative tumour volume) in mice bearing SW620 xenografts; format: in vivo
From the text: FIG. 8 is a graph showing the tumour growth (median relative tumour volume) in mice bearing SW620 xenografts following treatment with formula III in combination with temozolomide (TMZ) and with TMZ alone;
FIG. 9 is a graph showing the tumour growth (median relative tumour volume) of mice bearing SW620 xenografts following treatment with formula I-phosphate in combination with temozolomide (TMZ) and with formula I-phosphate and TMZ alone;
However, shortly after this time the tumour size begins to increase.

[2] = Plasma and tumour concentrations in mice bearing SW620 xenografts after intraperitoneal administration; format: in vivo
VC8 cell line [3] = experiment: Clonogenic survival assay, VC8 cell line (lacks BRCA2)
Description: (§3) All cell lines in this study were grown in Dulbecco's modified Eagle's Medium (DMEM) with 10% Foetalbovine serum and penicillin (100 U/ml) and steptomycin sulphate (100 μg/mL) at 37° C. under an atmosphere containing 5% CO2.
(§4) The cells were harvested by trypsinisation, counted and seeded at varying densities in 10 cm dishes in fresh medium in the absence of drug for colony formation.
(§5) 7-10 days later the dishes were fixed with methanol:acetic acid 3:1 and stained with 0.4% crystal violet.
(§6) Colonies were counted and the survival relative to 1% DMSO control treated cells calculated.

IrS ISF cell line = experiment: cells; format: cell-based; conditions: Cricetulus griseus, 24 h, read-out: LC50 (the concentration of the active component that kills 50% of the cells)
From the text: The AA8, irs1SF and CXR3 cell lines were provided by Larry Thompson.
Toxicity Assay—Clonogenic Survival Assay

PARP [4] = molecular target: T2, PARP (Homo sapiens, UniProt P09874); experiment: PARP activity in SW620 xenograft tumour homogenates from formula III-treated mice ([32P] NAD+ incorporation); format: in vivo; conditions: 10 mg/kg intraperitoneal
T2 construct: PARP activity in tumour homogenates (1 in 40 in isotonic buffer) from formula III-treated mice; from tissue; host or cells: homogenates of SW620 xenograft tumours grown in mice
Description: FIG. 7 is a bar chart showing the pharmacokinetics and pharmacodynanics with formula III in mice bearing SW620 xenografts;
as §1, with “antibody. […]” for “antibody. Briefly, tumour homogenates diluted to up to 1:1000 in isotonic buffer were incubated with 350 μM NAD for 6 min and blotted onto nitrocellulose membrane.”, “antibody. The results were standardised by reference to the measured protein content of the homogenate.” for “antibody.”

PARP [5] = molecular target: T1, PARP; experiment: PARP activity assay in intact L1210 cells (20 minutes exposure before permeabilisation); format: cell-based; design: endogenous in cells; host or cells: L1210 cells, digitonin-permeabilised; conditions: exposed 20 minutes prior to permeabilisation
Description: as §1

VC8 cell line [6] = conditions: hamster, 24 h
Description: as §3, §4, §5, §6

[7] = Solubility of the phosphate salt; format: physicochemical; conditions: phosphate salt vs parent compound
PARP [8] = molecular target: T1, PARP; experiment: PARP activity in mouse peripheral blood lymphocytes after formula I-phosphate (10H antibody detection); format: in vivo; design: PARP activity in pbls and tumour homogenates from formula I-phospate treated mice; from tissue; host or cells: peripheral blood lymphocytes of treated mice; conditions: 10 mg/kg intraperitoneal, up to 24 hr
Description: (§2) FIG. 6 is a pair of bar charts showing the blood and tumour pharmacokinetics and pharmacodynamics with formula I-phosphate at 1 mg/kg (upper) and 10 mg/kg (lower) in mice bearing SW620 xenografts;
as §1, with “Briefly, tumour homogenates diluted to up to 1:1000 in isotonic buffer were incubated with 350 μM NAD for 6 min and blotted onto nitrocellulose membrane.” left out

PARP [9] = molecular target: T2, PARP; experiment: PARP activity in SW620 xenograft tumour homogenates after formula I-phosphate (10H antibody detection); format: in vivo, mice
Description: as §2
as §1, with “Briefly, tumour homogenates diluted to up to 1:1000 in isotonic buffer were incubated with 350 μM NAD for 6 min and blotted onto nitrocellulose membrane.” left out

[10] = 10 mg/kg intraperitoneal, SW620 xenograft

T2 sequence (P09874 whole entry): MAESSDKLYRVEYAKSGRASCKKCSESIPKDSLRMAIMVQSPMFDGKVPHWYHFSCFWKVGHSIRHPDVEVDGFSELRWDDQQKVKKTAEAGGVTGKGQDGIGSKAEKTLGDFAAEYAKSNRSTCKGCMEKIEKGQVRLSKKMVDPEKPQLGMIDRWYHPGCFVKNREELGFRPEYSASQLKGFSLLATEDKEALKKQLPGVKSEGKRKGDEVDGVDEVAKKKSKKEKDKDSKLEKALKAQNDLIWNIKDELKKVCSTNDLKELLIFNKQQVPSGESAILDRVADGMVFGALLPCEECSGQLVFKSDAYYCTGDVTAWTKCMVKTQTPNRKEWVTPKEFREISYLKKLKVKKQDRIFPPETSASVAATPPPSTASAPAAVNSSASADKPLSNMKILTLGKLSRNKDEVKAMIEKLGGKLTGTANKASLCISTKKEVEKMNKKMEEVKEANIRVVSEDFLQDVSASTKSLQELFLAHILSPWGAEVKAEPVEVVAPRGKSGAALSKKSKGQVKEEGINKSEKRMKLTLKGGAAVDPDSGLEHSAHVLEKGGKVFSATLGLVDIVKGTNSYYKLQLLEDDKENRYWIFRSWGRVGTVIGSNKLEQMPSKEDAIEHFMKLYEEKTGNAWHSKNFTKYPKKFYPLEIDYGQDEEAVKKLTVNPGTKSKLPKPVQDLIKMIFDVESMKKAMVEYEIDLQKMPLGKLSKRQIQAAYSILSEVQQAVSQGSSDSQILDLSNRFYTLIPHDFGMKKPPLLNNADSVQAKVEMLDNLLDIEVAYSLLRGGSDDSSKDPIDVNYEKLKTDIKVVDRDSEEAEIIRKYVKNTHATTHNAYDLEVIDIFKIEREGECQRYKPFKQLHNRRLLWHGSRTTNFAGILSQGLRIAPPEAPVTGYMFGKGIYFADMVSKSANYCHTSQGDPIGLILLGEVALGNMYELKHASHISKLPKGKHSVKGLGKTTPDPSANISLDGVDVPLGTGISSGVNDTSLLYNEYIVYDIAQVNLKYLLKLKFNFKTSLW
T1 sequence (P11103 whole entry): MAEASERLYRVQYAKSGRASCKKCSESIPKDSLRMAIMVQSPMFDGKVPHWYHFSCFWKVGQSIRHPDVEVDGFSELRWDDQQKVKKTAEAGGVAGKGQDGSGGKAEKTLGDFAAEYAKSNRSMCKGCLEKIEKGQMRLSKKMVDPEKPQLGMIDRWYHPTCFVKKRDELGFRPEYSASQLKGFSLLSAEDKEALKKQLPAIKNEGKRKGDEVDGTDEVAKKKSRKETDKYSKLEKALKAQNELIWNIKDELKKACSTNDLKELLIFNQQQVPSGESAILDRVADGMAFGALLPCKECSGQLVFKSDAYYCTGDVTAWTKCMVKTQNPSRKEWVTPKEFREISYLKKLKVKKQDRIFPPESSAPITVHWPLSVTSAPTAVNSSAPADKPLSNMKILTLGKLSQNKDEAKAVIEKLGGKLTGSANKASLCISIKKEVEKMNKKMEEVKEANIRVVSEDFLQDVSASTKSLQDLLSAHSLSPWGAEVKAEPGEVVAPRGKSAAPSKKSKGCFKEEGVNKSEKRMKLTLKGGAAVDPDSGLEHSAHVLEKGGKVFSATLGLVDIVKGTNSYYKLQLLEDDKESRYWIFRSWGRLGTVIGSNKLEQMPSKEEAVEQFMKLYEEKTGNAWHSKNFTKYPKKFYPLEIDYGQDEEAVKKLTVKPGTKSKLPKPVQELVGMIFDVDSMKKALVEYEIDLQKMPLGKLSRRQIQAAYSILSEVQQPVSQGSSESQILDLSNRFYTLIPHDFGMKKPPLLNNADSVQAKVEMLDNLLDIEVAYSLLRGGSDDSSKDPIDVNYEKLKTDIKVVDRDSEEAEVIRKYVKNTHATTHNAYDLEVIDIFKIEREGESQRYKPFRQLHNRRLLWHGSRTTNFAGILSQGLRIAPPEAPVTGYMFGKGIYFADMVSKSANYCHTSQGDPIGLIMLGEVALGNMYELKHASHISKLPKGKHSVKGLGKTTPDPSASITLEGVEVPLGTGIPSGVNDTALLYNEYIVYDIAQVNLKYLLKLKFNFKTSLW

**Q.** What does the source list for `CN(C)Cc1ccc(-c2nc3cccc4c3n2CCNC4=O)cc1` [Formula III]?
**A.** PARP inhibitory activity, formula I compared with formula III (PARP [1]): no difference; time over which tumour shrinks to an undetectable size (SW620 xenografts; formula III 5 mg/kg daily×5 with temozolomide 68 mg/kg daily×5): around 15 days; further time tumour size remains undetectable (SW620 xenografts; formula III 5 mg/kg daily×5 with temozolomide 68 mg/kg daily×5, then begins to increase): 50 days; tumour outcome at autopsy (SW620 xenografts; formula III 15 mg/kg daily×5 with temozolomide, end of the experiment): complete tumour regression; further time tumour size remains undetectable (SW620 xenografts; formula III 15 mg/kg daily×5 with temozolomide, until the end of the experiment): 80 days; distribution to tumour [2, 10]: distributes well to the tumour; retention in tumour relative to plasma with time [2, 10]: preferentially retained with time; LC90 (concentration of active component that kills 90% of the cells) (VC8 cell line [3]): 1200 nM; CC50 (VC8 cell line [3]; read-out: LC50): 43 nM; CC50 (IrS ISF cell line): 100 nM; PARP activity in the tumour (PARP [4]): inhibits PARP activity in the tumour

**Q.** Which results are given for `CNCc1ccc(-c2[nH]c3cc(F)cc4c3c2CCNC4=O)cc1` [Formula I]?
**A.** PARP inhibitory activity, formula I compared with formula III (PARP [1]): no difference; PARP inhibitory activity, formula I compared with formula III (PARP [5]): more potent in intact cells; LC90 (concentration of active component that kills 90% of the cells) (VC8 cell line [3]): 27 nM; CC50 (VC8 cell line [6]): 12 nM

**Q.** Which results are given for `CNCc1ccc(-c2[nH]c3cc(F)cc4c3c2CCNC4=O)cc1.O=P(O)(O)O` [formula I-phosphate]?
**A.** solubility relative to formula I [7]: increases the solubility; levels of formula I in plasma and tumour ([2]; 1 mg/kg intraperitoneal, compared with 10 mg/kg): lower levels; plasma concentration of parent compound formula I ([2]; 10 mg/kg intraperitoneal, 24 hr after administration): none could be detected; tumour concentration of parent compound formula I ([2]; 10 mg/kg intraperitoneal, 24 hr after administration, SW620 xenograft): significant levels were detectable; plasma concentration of parent compound formula I ([2]; 10 mg/kg intraperitoneal, thirty minutes after administration): highlevels; tumour concentration of parent compound formula I ([2]; 10 mg/kg intraperitoneal, thirty minutes after administration, SW620 xenograft): highlevels; PARP activity in pbls (PARP [8]): < 50 % control; effect on PARP activity (PARP [9]; 1 mg/kg intraperitoneal, compared with 10 mg/kg, pbls and tumour): less pronounced effect; PARP activity in tumour (PARP [9]; 10 mg/kg intraperitoneal, up to 24 hr, SW620 xenograft): < 50 % control
